Experiments:
[1] = tested on: spontaneously hypertensive rats (SHR); assay: Antihypertensive activity in conscious spontaneously hypertensive rats (SHR); assay type: in vivo, rat; conditions: 10 mpk po, fasted overnight, mean blood pressure
Method: The ability of the compounds of the present invention to lower blood pressure can be assessed in vivo in conscious spontaneously hypertensive rats (SHR). SHR males are purchased from Taconic Farms, Germantown New York and are approximately 16-18 weeks old when anesthetized with ether. The caudal (ventral tail) artery is cannulated with polyethylene tubing (PESO) and blood pressure and heart rate are recorded as described by Baum, T. et. al, J. Cardiovasc. Pharmacol. Vol 5, pp. 655-667, (1983). Rats are placed into plastic cylindrical cages where they rapidly recover consciousness. Blood pressure and heart rate are allowed to stabilize for approximately 90 minutes prior to compound administration. Compounds are administered orally as solutions or suspensions in 0.4% aqueous methylcellulose vehicle via a feeding needle. The compound or 0.4% aqueous methylcellulose vehicle are given in a volume of 4 ml/kg to SHRs that had been fasted overnight. Activity is expressed as the fall in mean blood pressure (MBP) in millimeters of mercury (mm Hg). Compound-induced changes are compared with the changes in an appropriate placebo group.

[2] = Plasma levels in SHR after oral dosing; assay type: in vivo; conditions: rat, 10 mg/kg, 10 mpk orally, sampled 0.5, 1, 2, 3 and 4 hours, read-out: Plasma Level AUC
Method: SHRs dosed orally with test compound at 10 mpk and plasma levels were subsequently measured at intervals of 0.5, 1, 2, 3 and 4 hours. Plasma levels (μg/ml) were plotted versus hours post dosing and the area under the curve (AUC, μghr/ml) was calculated.

[3] = biological target: T1, PDE Type I (calcium-calmodulin dependent phosphodiesterase, CaM-PDE) (Bos taurus, UniProt P14100); assay: Phosphodiesterase inhibition in vitro, Type I (calcium-calmodulin dependent phosphodiesterase, CaM-PDE); assay type: biochemical; conditions: CaM-PDE from bovine aorta; 1 μM 3H-cGMP substrate; pH 7.5; 25 minutes, room temperature
T1 construct: from tissue; host or cells: bovine aorta

[4] = biological target: T2, PDE Type V (cGMP phosphodiesterase, cGMP-PDE) (Bos taurus, UniProt Q28156); assay: Phosphodiesterase inhibition in vitro, Type V (cGMP phosphodiesterase, cGMP-PDE); assay type: biochemical; conditions: cGMP-PDE from bovine lung; 1 μM 3H-cGMP substrate; pH 7.5; 25 minutes, room temperature
T2 construct: homogeneous enzyme obtained from bovine lung and purified by ion-exchange chromatography, gel filtration, and sucrose gradient centrifugation; from tissue; host or cells: bovine lung

AUC at 4 h [2] [ng·h/mL] | IC50 [3] [nM] | IC50 [4] [nM] | Structure (SMILES) | SHR Antihypertensive: Fall in MBP [1] [mmHg]
3340 | 5 | 500 | COc1ccc(-c2ccc(Cc3nc4c([nH]3)C(=O)N(C)C3=NC5(CCCC5)CN34)cc2)cc1 [Ref. Cpd., 2'-[[(4'-methoxy-1,1'-biphenyl) -4-yl]methyl]-5'-methyl-spiro[cyclopentane-1,7'(8'H)-[3H]imidazo-[2,1-b]purin]-4'(5'H)-one, reference compound] | -35
5890 | 12 | 210 | CN1C(=O)c2[nH]c(Cc3ccc(-c4ccc(Br)cc4)cc3)nc2N2CC3(CCCC3)N=C12 [Example 2] | -11
4800 | 11 | 170 | CN1C(=O)c2[nH]c(Cc3ccc(-c4ccc(Cl)cc4)cc3)nc2N2CC3(CCCC3)N=C12 [Example 1] | -24
7730 | 9 | 520 | CN1C(=O)c2[nH]c(Cc3ccc(-c4ccc(F)cc4)cc3)nc2N2CC3(CCCC3)N=C12 [Example 3] | -35

— patent US5824683A, “2'-[[4'-h alo-[1,1'-biphenyl]-4-yl]methyl]-5'-methyl-spiro[cyclopentane-1,7' (8'H)-[3H] imidazo[2,1-b]purin]-4' (5'H)-ones” (Schering Corporation, priority 1996, dated 1998)
